Experimental data: US20260226071A1, “2, 4-DIANILINOPYRIMIDINE-BASED AURORA-A KINASE SELECTIVE DEGRADATION INDUCING COMPOUNDS” (UPPTHERA, INC., priority 2023, published 2026)

What was measured:
Aurora kinase A (AURKA) = biological target: T1, Aurora kinase A (AURKA) (Homo sapiens, UniProt O14965); test: Luciferase assay for AURKA in HeLa LgBit (AURKA-HiBit KI) cell line; format: cell-based; settings: HeLa LgBit (AURKA-HiBit KI) cells, measured after 12 hours
T1 construct: endogenous in cells; host or cells: HeLa LgBit (AURKA-HiBit KI), CRISPR/Cas9 knock-in at the endogenous AURKA locus
T1 sequence (O14965 1-403): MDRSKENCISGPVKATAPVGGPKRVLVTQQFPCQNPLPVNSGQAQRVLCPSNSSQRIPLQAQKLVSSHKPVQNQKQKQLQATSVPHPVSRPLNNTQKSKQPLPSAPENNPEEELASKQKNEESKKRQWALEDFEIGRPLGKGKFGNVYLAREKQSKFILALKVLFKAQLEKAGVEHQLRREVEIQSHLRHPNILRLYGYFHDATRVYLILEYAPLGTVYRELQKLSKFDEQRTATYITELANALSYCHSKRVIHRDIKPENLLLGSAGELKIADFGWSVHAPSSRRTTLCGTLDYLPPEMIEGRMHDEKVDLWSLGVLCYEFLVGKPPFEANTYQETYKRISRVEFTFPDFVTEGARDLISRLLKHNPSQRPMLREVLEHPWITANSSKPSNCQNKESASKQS
Method in brief: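 Test compounds (10 nM or 100 nM) added to AURKA-HiBit knock-in HeLa LgBit cells that had been pre-loaded with Endurazine for 2 h following an 18 h culture at 3×10^4 cells. Endogenous AURKA-HiBit level followed by luminescence (470-480 nm), measured after 12 h.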

NCI-H446 cell line = test: Cell viability assay for NCI-H446 cell line; format: cell-based; settings: Homo sapiens, NCI-H446, 120 h; H446 cells, 5 days culture, EZ-Cytox; read-out: IC50 value (Level)
Description: The NCI-H446 (hereafter H446) cell lines were provided from American Type Culture Collection (ATCC). For cell culture, RPMI medium 1640 (Gibco, Cat. No. 22400-089; Lot. No. 2522717), FBS (Gibco, Cat. No. 16000-044; Lot. No. 2716756P), Penicillin/Streptomycin (PS) (Gibco, Cat. No. 15140-122; Lot. No. 2585636), 75T cell culture flask (SPL, Cat. No. 70075), 96 well cell culture plate (SPL, Cat. No. 30096), PBS pH 7.4 (Gibco, Cat. No. 10010-023; Lot. No. 2561466), TrypLE™ Express (Gibco, Cat. No. 12605-010; Lot. No. 2492811), counting chamber (hematocytometer) (Hirschmann, Cat. No. 8100204) and 0.4% Trypan Blue solution (DYNEBIO, Cat. No. CBT3710; Lot. No. 20231017) were used. Cells were cultured in RPMI 1640 medium supplemented with 10% FBS and 1% PS and incubated at 37° C., 5% CO2 condition in CO2 incubator (ThermoScientific, Cat. No. 4111).
For experiment, the present compounds were fully dissolved in DMSO (Sigma-Aldrich Cat. No. D2438, Lot. No. RNBL7287.
In each well of 96-well cell culture plate, […] cells of H446 cell lines were seeded in 150 μl of total medium volume. After 24 hours of cell seeding, the present compounds were treated.
The present compounds were each diluted 3-folds from the highest concentration of 1000 nM to the lowest concentration of 0.15 nM. The compound was added to each well to make the total volume of […] and the cells were cultured for 5 days in CO2 incubator (Thermo Fisher Science, Cat. No. 4111).
Thereafter, 20 μl of EZ-Cytox (DOGEN, Cat. NO. EZ-3000, Lot. No. DLS2308) was added to each well and the cells were cultured for 4 hours at the same condition in CO2 incubator. After culture, the absorbance of the sample was measured by setting the wavelength of a plate reader (BMG Labtech, CLARIOstar Plus) to […]. The samples were shaked for 2 minutes in the plate reader before measurement.

SMILES	luminescence value (Level) (Aurora kinase A (AURKA); 10 nM compound)	luminescence value (Level) (Aurora kinase A (AURKA); 100 nM compound)	IC50 (NCI-H446 cell line) [nM]
CN(c1cccc(N2CCC(CN3CCN(C(=O)Cc4ccc(Nc5ncc(F)c(Nc6ccc(C(=O)Nc7ccccc7Cl)cc6)n5)cc4)CC3)CC2)c1)C1CCC(=O)NC1=O (stereo not drawn) [Compound 45, N-(2-chlorophenyl)-4-((2-((4-(2-(4-((1-(3-((2,6-dioxopiperidin-3-yl)(methyl)amino)phenyl)piperidin-4-yl)methyl)piperazin-1-yl)-2-oxoethyl)phenyl)amino)-5-fluoropyrimidin-4-yl)amino)benzamide]	C (C is 0.5 to 0.7)	B (B is 0.2 to 0.4)	50 to 100
O=C1CCC(c2ccc(N3CCN(CCC4CCN(NC(=O)c5ccc(Nc6ncc(F)c(Nc7ccc(C(=O)Nc8ccccc8Cl)cc7)n6)cc5)CC4)CC3)c(F)c2)C(=O)N1 (stereo not drawn) [Compound 48, N-(2-chlorophenyl)-4-((2-((4-((4-(2-(4-(4-(2,6-dioxopiperidin-3-yl)-2-fluorophenyl)piperazin-1-yl)ethyl)piperidin-1-yl)carbamoyl)phenyl)amino)-5-fluoropyrimidin-4-yl)amino)benzamide]	A (A is <0.3)	A (A is <0.2)	< 50
CN(CC1CCN(c2ccc(C3CCC(=O)NC3=O)cc2)CC1)[C@H]1CC[C@H](NC(=O)c2ccc(Nc3ncc(F)c(Nc4ccc(C(=O)Nc5ccccc5Cl)cc4)n3)cc2)CC1 (stereo partly drawn) [Compound 49, N-(2-chlorophenyl)-4-((2-((4-(((1r,4r)-4-(((1-(4-(2,6-dioxopiperidin-3-yl)phenyl)piperidin-4-yl)methyl)(methyl)amino)cyclohexyl)carbamoyl)phenyl)amino)-5-fluoropyrimidin-4-yl)amino)benzamide]	A (A is <0.3)	A (A is <0.2)	< 50
O=C1CCC(c2ccc(N3CCC(CN4CCC(NC(=O)c5ccc(Nc6ncc(F)c(Nc7ccc(C(=O)Nc8ccccc8Cl)cc7)n6)cc5)CC4)CC3)cc2)C(=O)N1 (stereo not drawn) [Compound 50, N-(2-chlorophenyl)-4-[[2-[4-[[1-[[1-[4-(2,6-dioxo-3-piperidyl)phenyl]-4-piperidyl]methyl]-4-piperidyl]carbamoyl]anilino]-5-fluoro-pyrimidin-4-yl]amino]benzamide]	B (B is 0.3 to 0.5)	A (A is <0.2)	50 to 100
O=C1CCC(c2ccc(N3CCN(C(=O)CN4CCC(NC(=O)c5ccc(Nc6ncc(F)c(Nc7ccc(C(=O)Nc8ccccc8Cl)cc7)n6)cc5)CC4)CC3)cc2)C(=O)N1 (stereo not drawn) [Compound 51, N-(2-chlorophenyl)-4-((2-((4-((1-(2-(4-(4-(2,6-dioxopiperidin-3-yl)phenyl)piperazin-1-yl)-2-oxoethyl)piperidin-4-yl)carbamoyl)phenyl)amino)-5-fluoropyrimidin-4-yl)amino)benzamide]	A (A is <0.3)	A (A is <0.2)	< 50
O=C1CCC(c2ccc(N3CCN(CCCC4CCN(NC(=O)c5ccc(Nc6ncc(F)c(Nc7ccc(C(=O)Nc8ccccc8Cl)cc7)n6)cc5)CC4)CC3)cc2)C(=O)N1 (stereo not drawn) [Compound 52, N-(2-chlorophenyl)-4-((2-((4-((4-(3-(4-(4-(2,6-dioxopiperidin-3-yl)phenyl)piperazin-1-yl)propyl)piperidin-1-yl)carbamoyl)phenyl)amino)-5-fluoropyrimidin-4-yl)amino)benzamide]	A (A is <0.3)	A (A is <0.2)	< 50
O=C1CCC(c2ccc(N3CCN(CCC4CCN(C(=O)Nc5ccc(Nc6ncc(F)c(Nc7ccc(C(=O)Nc8ccccc8Cl)cc7)n6)cc5)CC4)CC3)cc2)C(=O)N1 (stereo not drawn) [Compound 53, N-(4-((4-((4-((2-chlorophenyl)carbamoyl)phenyl)amino)-5-fluoropyrimidin-2-yl)amino)phenyl)-4-(2-(4-(4-(2,6-dioxopiperidin-3-yl)phenyl)piperazin-1-yl)ethyl)piperidine-1-carboxamide]	B (B is 0.3 to 0.5)	A (A is <0.2)	< 50
O=C1CCC(Nc2ccc(N3CCN(CCC4CCN(NC(=O)c5ccc(Nc6ncc(F)c(Nc7ccc(C(=O)Nc8ccccc8Cl)cc7)n6)cc5)CC4)CC3)c(F)c2)C(=O)N1 (stereo not drawn) [Compound 55, N-(2-chlorophenyl)-4-((2-((4-((4-(2-(4-(4-((2,6-dioxopiperidin-3-yl)amino)-2-fluorophenyl)piperazin-1-yl)ethyl)piperidin-1-yl)carbamoyl)phenyl)amino)-5-fluoropyrimidin-4-yl)amino)benzamide]	A (A is <0.3)	A (A is <0.2)	< 50
O=C1CCC(c2ccc(N3CCN(CCC4CCN(NC(=O)c5ccc(Nc6ncc(F)c(Nc7ccc(C(=O)Nc8ccccc8Cl)cc7)n6)cc5)CC4)CC3)nc2)C(=O)N1 (stereo not drawn) [Compound 56, N-(2-chlorophenyl)-4-[[2-[4-[[4-[2-[4-[5-(2,6-dioxo-3-piperidyl)-2-pyridyl]piperazin-1-yl]ethyl]-1-piperidyl]carbamoyl]anilino]-5-fluoro-pyrimidin-4-yl]amino]benzamide]	A (A is <0.3)	A (A is <0.2)	< 50
O=C1CCC(c2ccc(N3CCN(CCC4CCN(NC(=O)c5ccc(Nc6ncc(F)c(Nc7ccccc7Cl)n6)cc5)CC4)CC3)cc2)C(=O)N1 (stereo not drawn) [Compound 57, 4-((4-((2-chlorophenyl)amino)-5-fluoropyrimidin-2-yl)amino)-N-(4-(2-(4-(4-(2,6-dioxopiperidin-3-yl)phenyl)piperazin-1-yl)ethyl)piperidin-1-yl)benzamide]	A (A is <0.3)	A (A is <0.2)	100 to 150
O=C1CCC(c2ccc(N3CCN(CCC4CCN(NC(=O)c5ccc(Nc6ncc(F)c(Nc7ccccc7)n6)cc5)CC4)CC3)cc2)C(=O)N1 (stereo not drawn) [Compound 58, N-(4-(2-(4-(4-(2,6-dioxopiperidin-3-yl)phenyl)piperazin-1-yl)ethyl)piperidin-1-yl)-4-((5-fluoro-4-(phenylamino)pyrimidin-2-yl)amino)benzamide]	A (A is <0.3)	A (A is <0.2)	< 50
C[C@H](CN1CCN(c2ccc(C3CCC(=O)NC3=O)cc2)CC1)C1CCN(NC(=O)c2ccc(Nc3ncc(F)c(Nc4ccc(C(=O)Nc5ccccc5Cl)cc4)n3)cc2)CC1 (stereo partly drawn) [Compound 63, N-(2-chlorophenyl)-4-((2-((4-((4-((2S)-1-(4-(4-(2,6-dioxopiperidin-3-yl)phenyl)piperazin-1-yl)propan-2-yl)piperidin-1-yl)carbamoyl)phenyl)amino)-5-fluoropyrimidin-4-yl)amino)benzamide]	A (A is <0.3)	A (A is <0.2)	< 50
O=C1CCC(c2ccc(N3CCN(CCN4CC(NC(=O)c5ccc(Nc6ncc(F)c(Nc7ccc(C(=O)Nc8ccccc8Cl)cc7)n6)cc5)C4)CC3)cc2)C(=O)N1 (stereo not drawn) [Compound 65, N-(2-chlorophenyl)-4-((2-((4-((1-(2-(4-(4-(2,6-dioxopiperidin-3-yl)phenyl)piperazin-1-yl)ethyl)azetidin-3-yl)carbamoyl)phenyl)amino)-5-fluoropyrimidin-4-yl)amino) benzamide]	B (B is 0.3 to 0.5)	A (A is <0.2)	50 to 100
